Target: T1, human orexin 2 receptor (Homo sapiens, UniProt O43614)
T1 construct: stably expressing the full-length human orexin 2 receptor and the aequorin photoprotein; expressed in transfected cells; host or cells: CHO-K1 (CHO-K1/hOx2), co-expressing aequorin
T1 sequence (O43614 1-444): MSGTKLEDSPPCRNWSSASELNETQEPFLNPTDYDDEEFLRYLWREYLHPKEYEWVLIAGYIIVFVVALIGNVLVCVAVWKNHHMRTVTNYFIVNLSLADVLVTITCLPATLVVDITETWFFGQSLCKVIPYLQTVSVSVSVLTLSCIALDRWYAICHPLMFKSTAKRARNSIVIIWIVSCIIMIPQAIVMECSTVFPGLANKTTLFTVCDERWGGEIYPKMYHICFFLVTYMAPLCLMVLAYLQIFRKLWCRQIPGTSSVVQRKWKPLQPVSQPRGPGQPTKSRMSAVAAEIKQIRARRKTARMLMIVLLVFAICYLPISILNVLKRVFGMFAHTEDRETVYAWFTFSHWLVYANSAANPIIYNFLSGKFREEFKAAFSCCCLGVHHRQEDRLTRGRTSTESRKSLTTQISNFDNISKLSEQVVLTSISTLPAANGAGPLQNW
Test: Assay B: OX2R IP1 (in vitro OX2R potency)
Type: cell-based
Conditions: 0.5 nM Orexin A concentration
Description: Activation of the orexin receptors expressed in cell lines results in an increase in intracellular IP3 concentration. IP1, a downstream metabolite of IP3, accumulates in cells following receptor activation and is stable in the presence of LiCl. Using Homogeneous Time-Resolved Fluorescence technology with Lumi4-Tb cryptate (commercially available from Cisbio Bioassay.) and a suitable fluorescence plate reader. […] Chem. Genomics 2009, 3, 22-32. This technique is used to characterize pharmacological modification of the orexin receptors.
B. In Vitro Testing of OX2R Potency: OX2R IP1
IP1 measurements are performed in CHO-K1 cells stably expressing the full-length human orexin 2 receptor and the aequorin photoprotein. Cells are cultivated in Ham's nutrient mixture F12 medium with 10% fetal calf serum, in a 37° C., 95% humidity and 5% CO2 incubator. The CHO-K1/hOx2 cell mass is expanded to larger cell numbers. The cells are obtained as frozen cells in cryo-vials and stored until use at −150° C. The viability of the cells after thawing is >90%. In preparation for the assay, 24 hours before the assay, the cells are thawed at 37° C. and immediately diluted with cell culture medium. After centrifugation, the cell pellet is resuspended in medium and then distributed into the assay plates with a density of 5000 cells/25 μL per well. The plates are incubated for one hour at room temperature to reduce edge effects before they are incubated for 24 hours at 37° C./5% CO2. Compounds are prepared by a 8-point serial dilution in DMSO and a final dilution step into assay buffer (HBSS with 20 mM HEPES, 0.1% BSA and 50 mM LiCl, pH 7.4) to ensure a final DMSO concentration of 1% in the assay. On the day of the assay, cells in the plate are washed twice with 60 μL assay buffer (20 μL buffer remained in the wells after washing), followed by adding 5 μL per well of compounds diluted in assay buffer. After 15 minutes of incubation at room temperature 5 μL per well of Orexin A peptide (final concentration: 0.5 nM) dissolved in assay buffer is added to the assay plate. The assay plate is incubated for 60 minutes at 37° C. Then 5 μl per well of Anti-IP1-Cryptate Tb solution and 5 μl per well of IP1-d2 dilution are added to all well of the plate and the plate is incubated for a further 60 minutes light protected at room temperature. The emission at 615 nm and 665 nm (Excitation wavelength: 320 nm) are measured using an EnVision reader (PerkinElmer). The ratio between the emission at 665 nm and 615 is calculated by the reader.
8-point four parametric non-linear curve fitting and determination of IC50 values and Hill slopes is performed using a regular analysis software e.g. AssayExplorer (Accelrys). In order to establish an agonist concentration independent parameter, Kb values are calculated using the following equation: IC50/((2+(A/EC50)n)^1/n−1) (with A=concentration agonist, EC50=EC50 agonist, n=Hill slope agonist) (see P. Leff, I. G. Dougall, Trends Pharmacol. Sci. 1993, 14(4), 110-112).
Kb values from Assay A (OX1R) and Assay B (OX2R) can then provide a selectivity ratio which is independent of the agonist (Orexin A) concentration.

SMILES	Kb [nM]
CCN(C(=O)c1ccccc1-n1nccn1)[C@@H](C)CNc1ncc(C(F)(F)F)cn1 [Example 1]	19.4
CCN(C(=O)c1nc(C)ccc1-n1nccn1)[C@@H](C)CNc1ncc(C(F)(F)F)cn1 [Example 9]	32.9
CCN(C(=O)c1cnc(C)nc1-c1ccccc1)[C@@H](C)CNc1ncc(C(F)(F)F)cn1 [Example 17]	54
CCN(C(=O)c1cccc(F)c1-n1nccn1)[C@@H](C)CNc1ncc(C(F)(F)F)cn1 [Example 18]	18

Tested on: not listed separately
Test: Assay C: metabolic stability in human liver microsomes (Human MST)
Type: in vitro ADME
Conditions: pooled human liver microsomes, pH 7.6, 1 μM compound, 37° C., read-out: Human MST t1/2
Description: Stability in human liver microsomes refers to the susceptibility of compounds to biotransformation in the context of selecting and/or designing drugs with favorable pharmacokinetic properties. The primary site of metabolism for many drugs is the liver. Human liver microsomes contain the cytochrome P450s (CYPs), and thus represent a model system for studying drug metabolization in vitro. Enhanced stability in human liver microsomes is associated with several advantages, including increased bioavailability and longer half-life, which can enable lower and less frequent dosing of patients. Thus, enhanced stability in human liver microsomes is a favorable characteristic for compounds that are to be used for drugs.
C. Assessment of Metabolic Stability in Human Liver Microsomes (Human MST)
The metabolic stability of the compounds according to the invention may be investigated as follows:
The metabolic degradation of the test compound is assayed at 37° C. with pooled human liver microsomes. The final incubation volume of 100 μL per time point contains TRIS buffer pH 7.6 at room temperature (0.1 M), MgCl2 (5 mM), microsomal protein (1 mg/mL) and the test compound at a final concentration of 1 μM. Following a short pre-incubation period at 37° C., the reactions are initiated by addition of beta-nicotinamide adenine dinucleotide phosphate, reduced form (NADPH, 1 mM), and terminated by transferring an aliquot into solvent after different time points. After centrifugation (10000 g, 5 min), an aliquot of the supernatant is assayed by LC-MS/MS for the amount of parent compound. The half-life (t1/2) is determined by the slope of the semi-logarithmic plot of the concentration-time profile.

SMILES	half-life at 1 μM [h]
CCN(C(=O)c1ccccc1-n1nccn1)[C@@H](C)CNc1ncc(C(F)(F)F)cn1 [Example 1]	2
CCN(C(=O)c1nc(C)ccc1-n1nccn1)[C@@H](C)CNc1ncc(C(F)(F)F)cn1 [Example 9]	1.67
CCN(C(=O)c1cnc(C)nc1-c1ccccc1)[C@@H](C)CNc1ncc(C(F)(F)F)cn1 [Example 17]	> 2
CCN(C(=O)c1cccc(F)c1-n1nccn1)[C@@H](C)CNc1ncc(C(F)(F)F)cn1 [Example 18]	> 2
